Laboratory results as given in patent publication US7071178B2, “Use of vitamin D-derivatives in the treatment of osteoporosis and related bone disorders, as well as novel vitamin D3-derivatives” (Leo Pharmaceutical Products, Ltd., priority 2000, dated 2006).

Columns and labels:
OVX rats [1] = assay: OVX rat model on osteoporosis: biomechanical test of bone strength; assay type: in vivo; set-up: key to Effect on bone strength, Femor. Meta., vs 1,25D3 / Effect on bone strength, L3, vs 1,25D3 / Effect on bone strength, Femor. Dia., vs 1,25D3: <: less effect than the reference dose of 1,25D3 (0.25 ug/kg); <=: less or the same effect as the reference dose of 1,25D3 (0.25 ug/kg); =: same effect as the reference dose of 1,25D3 (0.25 ug/kg); =>: same or better effect as the reference dose of 1,25D3 (0.25 ug/kg); >: better effect than the reference dose of 1,25D3 (0.25 ug/kg); conditions: oral 28 days
Experimental: FIG. 2 is a graphic illustration of the biomechanical test of the lumbal vertebrae, L3. The vertebral body cylinder were tested along the proximal-distal axis in a materials testing machine (Alwetron TCT 5, Lorentzen and Wettre, Stockholm, Sweden) at a constant deformation rate of 2 mm/min. During compression, load-deformation curves were recorded and stored on a PC (ProLinea 4/33, Compaq, USA). Fmax is the maximum point on the load deforming curve.
The rats were treated according to the OVX rat model described herein, and wherein the animal groups received treatment according to the same scheme as for FIG. 1. A statistical analysis is shown in the graphic illustration, cf. description for FIG. 1.
(§1) Pharmacological Methods—OVX Rat Model on Osteoporosis
(§2) To study bone anabolic properties and the effects of the vitamin D analogues of the present invention in preventing or treating demineralisation of the skeleton in vivo, a 4 weeks OVX rat model was used:
(§3) An ovariectomized rat model (OVX model), orally dosed for 28 days is useful for screening of vitamin D analogues. In this model ovariectomy produces alterations in the cancellous network identical to those seen in the human skeleton during ageing and the menopause. Besides this the model and the following analyses can be performed under very standardised conditions. 1α,25(OH)2D3 is used as a reference compound.
(§4) Female Sprague Dawley rats weighing approximately 130 g (40–45 days old) were purchased from MB, Ejby, Denmark. The animals were fed a commercial diet and allowed free access to food and drinking water. The animals were split into groups receiving differential treatment.
(§5) The animals were anaesthetised and ovariectomized through a dorsal incision.
(§6) Treatment of OVX animals was started 2 weeks after ovariectomy.
(§7) The animals were dosed orally for 28 days. The oral dosage was by gavage 0.1 ml/100 g bodyweight. The bodyweight of each animal was recorded every day prior to oral dosing. On day 7, 14, 21 and 28 the animals were housed separately for 24 hours in metabolic cages for collection of urine. Urine was frozen at −20° C. for later calcium measurement.
Left and right femur, left and right tibia, lumbal vertebrae 3 and 4 (L3 and L4) were removed and cleaned for all soft- and connecting tissue. Left femur, left and right tibia and L4 were dried in an oven at 50–60° C. for at least 24 hours and immediately hereafter weighed. The bones were burned in an oven at 800° C. for 4 hours, dissolved in 1N HCl, and analysed for calcium content in a Hitachi 911 autoanalyser. Right femur and L3 were kept in 0.9% NaCl and frozen at −20° C. for later biomechanical testing performed by Jesper Skovhus Thomsen and Lis Mosekilde at Aarhus University, measuring various biomechanical parameters.
(§8) Effect of Compound 145 compared to the reference dose of 1,25(OH)2D3 (1,25D3) (0.25 μg/kg) and compared to the OVX control group (shown in %) are shown in Tables 1 to 4.

OVX rats [2] = assay: OVX rat model on osteoporosis: serum calcium; assay type: in vivo; set-up: key to Effect on serum calcium vs 1,25D3: <: less effect than the reference dose of 1,25D3 (0.25 ug/kg); <=: less or the same effect as the reference dose of 1,25D3 (0.25 ug/kg); =: same effect as the reference dose of 1,25D3 (0.25 ug/kg); =>: same or better effect as the reference dose of 1,25D3 (0.25 ug/kg); >: better effect than the reference dose of 1,25D3 (0.25 ug/kg); conditions: for Effect on serum calcium vs 1,25D3 / Effect on serum calcium vs Ovx contr: oral 28 days
Description: as §1, §2, §3, §4, §5, §6, §7
At day 28 the animals were anaesthetised and 2 ml of blood was obtained either by heart puncture or from the orbital vein, after this the animals were euthanized by CO2. The serum fraction was then removed and frozen at −20° C. for later measurement of calcium, phosphorous and creatinine.
as §8

C=C1C(=CC=C2CCCC3(C)C2CCC3C(C)CSc2ccc(C(C)(C)O)cc2)CC(O)CC1O [Compound 145, 1(S),3(R)-Dihydroxy-20(R)-(4-((1-hydroxy-1-methyl)ethyl)phenylthiomethyl)-9,10-seco-pregna-5(Z),7(E),10(19)-triene]
Effect on bone strength, Femor. Dia., vs 1,25D3 (OVX rats [1]; 1 μg/kg, MTR/16): <= | Effect on bone strength, Femor. Meta., vs 1,25D3 (OVX rats [1]; 1 μg/kg, MTR/16): < | Effect on bone strength, L3, vs 1,25D3 (OVX rats [1]; 1 μg/kg, MTR/16): < | Effect on bone strength, Femor. Dia., vs 1,25D3 (OVX rats [1]; 10 μg/kg, MTR/16): = | Effect on bone strength, Femor. Meta., vs 1,25D3 (OVX rats [1]; 10 μg/kg, MTR/16): = | Effect on bone strength, L3, vs 1,25D3 (OVX rats [1]; 10 μg/kg, MTR/16): > | Effect on bone strength, Femor. Dia., vs 1,25D3 (OVX rats [1]; 10 μg/kg, MTR/23): <= | Effect on bone strength, Femor. Dia., vs Ovx contr (OVX rats [1]; 10 μg/kg, MTR/23): −5% | Effect on bone strength, Femor. Meta., vs 1,25D3 (OVX rats [1]; 10 μg/kg, MTR/23): < | Effect on bone strength, Femor. Meta., vs Ovx contr (OVX rats [1]; 10 μg/kg, MTR/23): 6% | Effect on bone strength, L3, vs 1,25D3 (OVX rats [1]; 10 μg/kg, MTR/23): = | Effect on bone strength, L3, vs Ovx contr (OVX rats [1]; 10 μg/kg, MTR/23): 23% | Effect on bone strength, Femor. Dia., vs 1,25D3 (OVX rats [1]; 25 μg/kg, MTR/27): > | Effect on bone strength, Femor. Dia., vs Ovx contr (OVX rats [1]; 25 μg/kg, MTR/27): 9% | Effect on bone strength, Femor. Meta., vs 1,25D3 (OVX rats [1]; 25 μg/kg, MTR/27): > | Effect on bone strength, Femor. Meta., vs Ovx contr (OVX rats [1]; 25 μg/kg, MTR/27): 39% | Effect on bone strength, L3, vs 1,25D3 (OVX rats [1]; 25 μg/kg, MTR/27): <= | Effect on bone strength, L3, vs Ovx contr (OVX rats [1]; 25 μg/kg, MTR/27): 27% | Effect on bone strength, Femor. Dia., vs 1,25D3 (OVX rats [1]; 50 μg/kg, MTR/23): = | Effect on bone strength, Femor. Dia., vs Ovx contr (OVX rats [1]; 50 μg/kg, MTR/23): −1% | Effect on bone strength, Femor. Meta., vs 1,25D3 (OVX rats [1]; 50 μg/kg, MTR/23): > | Effect on bone strength, Femor. Meta., vs Ovx contr (OVX rats [1]; 50 μg/kg, MTR/23): 43% | Effect on bone strength, L3, vs 1,25D3 (OVX rats [1]; 50 μg/kg, MTR/23): > | Effect on bone strength, L3, vs Ovx contr (OVX rats [1]; 50 μg/kg, MTR/23): 45% | Effect on bone strength, Femor. Dia., vs 1,25D3 (OVX rats [1]; 50 μg/kg, MTR/27): > | Effect on bone strength, Femor. Dia., vs Ovx contr (OVX rats [1]; 50 μg/kg, MTR/27): 5% | Effect on bone strength, Femor. Meta., vs 1,25D3 (OVX rats [1]; 50 μg/kg, MTR/27): > | Effect on bone strength, Femor. Meta., vs Ovx contr (OVX rats [1]; 50 μg/kg, MTR/27): 31% | Effect on bone strength, L3, vs 1,25D3 (OVX rats [1]; 50 μg/kg, MTR/27): < | Effect on bone strength, L3, vs Ovx contr (OVX rats [1]; 50 μg/kg, MTR/27): 22% | Effect on bone strength, Femor. Dia., vs 1,25D3 (OVX rats [1]; 75 μg/kg, MTR/27): > | Effect on bone strength, Femor. Dia., vs Ovx contr (OVX rats [1]; 75 μg/kg, MTR/27): 4% | Effect on bone strength, Femor. Meta., vs 1,25D3 (OVX rats [1]; 75 μg/kg, MTR/27): >> | Effect on bone strength, Femor. Meta., vs Ovx contr (OVX rats [1]; 75 μg/kg, MTR/27): 50% | Effect on bone strength, L3, vs 1,25D3 (OVX rats [1]; 75 μg/kg, MTR/27): = | Effect on bone strength, L3, vs Ovx contr (OVX rats [1]; 75 μg/kg, MTR/27): 38% | Effect on bone strength, Femor. Dia., vs 1,25D3 (OVX rats [1]; 100 μg/kg, MTR/23): = | Effect on bone strength, Femor. Dia., vs Ovx contr (OVX rats [1]; 100 μg/kg, MTR/23): −3% | Effect on bone strength, Femor. Meta., vs 1,25D3 (OVX rats [1]; 100 μg/kg, MTR/23): = | Effect on bone strength, Femor. Meta., vs Ovx contr (OVX rats [1]; 100 μg/kg, MTR/23): 21% | Effect on bone strength, L3, vs 1,25D3 (OVX rats [1]; 100 μg/kg, MTR/23): > | Effect on bone strength, L3, vs Ovx contr (OVX rats [1]; 100 μg/kg, MTR/23): 37% | Effect on serum calcium vs 1,25D3 (OVX rats [2]; 1 μg/kg, MTR/16): No | Effect on serum calcium vs Ovx contr (OVX rats [2]; 1 μg/kg, MTR/16): 0% | Effect on serum calcium vs 1,25D3 (OVX rats [2]; 10 μg/kg, MTR/16): No | Effect on serum calcium vs Ovx contr (OVX rats [2]; 10 μg/kg, MTR/16): 3% | Effect on serum calcium vs 1,25D3 (OVX rats [2]; 10 μg/kg, MTR/23): < | Effect on serum calcium vs Ovx contr (OVX rats [2]; 10 μg/kg, MTR/23): 6% | Effect on serum calcium vs 1,25D3 (OVX rats [2]; 25 μg/kg, MTR/27): < | Effect on serum calcium vs Ovx contr (OVX rats [2]; 25 μg/kg, MTR/27): 11% | Effect on serum calcium vs 1,25D3 (OVX rats [2]; 50 μg/kg, MTR/23): No | Effect on serum calcium vs Ovx contr (OVX rats [2]; 50 μg/kg, MTR/23): 2% | Effect on serum calcium vs 1,25D3 (OVX rats [2]; 50 μg/kg, MTR/27): = | Effect on serum calcium vs Ovx contr (OVX rats [2]; 50 μg/kg, MTR/27): 18% | Effect on serum calcium vs 1,25D3 (OVX rats [2]; 75 μg/kg, MTR/27): = | Effect on serum calcium vs Ovx contr (OVX rats [2]; 75 μg/kg, MTR/27): 20% | Effect on serum calcium vs 1,25D3 (OVX rats [2]; 100 μg/kg, MTR/23): No | Effect on serum calcium vs Ovx contr (OVX rats [2]; 100 μg/kg, MTR/23): −5% | calcaemic effect (adverse effect) compared to 1,25D3 (OVX rats [2]; summary of Tables 1 to 4): reduced
